No end group written: not given here.
Key:
[1] = system: Escherichia coli; assay: Filter paper bacteriostatic circle test, Escherichia coli; format: cell-based; conditions: 20 μL of liquid medicine diluted by 10 times on 6.5 mm filter paper, 37° C., 24 hours
Method: (§1) In order to confirm the above conjecture, the application verifies the antibacterial effect of the traditional Chinese medicine concentrated solution prepared in each embodiment, and the method is as follows: • (1) taking Staphylococcus aureus and Escherichia coli grown on ordinary nutrient agar plates, dipping a small number of colonies with an inoculating loop, inoculating colonies into 5 mL of Mueller-Hinton (MH) broth, and performing shake culture at 37° C. for 6 hours at 200 r/min; taking bacterial liquid in logarithmic growth period and diluting the bacterial liquid with sterilized physiological saline until the bacterial content is 1-2×10^8 CFU/ml; diluting with sterilized physiological saline for 1000 times for later use; • (2) making a round filter paper with a diameter of 6.5 mm with a puncher, and dry-heat sterilizing it; first, evenly inoculating the bacterial liquid obtained in step (1) into a nutrient agar culture dish, then attaching the sterilized round filter paper to the surface of agar, transferring 20 μL of liquid medicine (diluted by 10 times) with a micropipette gun, dropping the liquid medicine in the center of the round filter paper, culturing it at 37° C. for 24 hours, and measuring the diameter of the bacteriostatic circle in which different liquid medicines are dropped.

[2] = system: Staphylococcus aureus; assay: Filter paper bacteriostatic circle test, Staphylococcus aureus; format: cell-based; conditions: 20 μL of liquid medicine diluted by 10 times on 6.5 mm filter paper, 37° C., 24 hours
Method: as §1

[3] = system: dairy cows with mastitis; assay: Therapeutic effect on dairy cows with mastitis (cure judged by sodium hydroxide curdled milk test); format: in vivo; conditions: ointments applied externally 2 g each time, twice a day for 5 days, control perfused with penicillin 100,000 IU, tested one day after stopping
Text: Fifty dairy cows with mastitis detected by Shanghai Mastitis Test (SMT) are selected from a dairy farm in Hunan Province, of which 20 cows are externally coated with the traditional Chinese medicine ointment for preventing and treating mastitis in dairy cows prepared in embodiment 1 and 20 cows are externally applied with the traditional Chinese medicine ointment for preventing and treating mastitis in dairy cows prepared in comparative example 1, with the dosage of 2 g each time, twice a day for 5 days. The remaining 10 cows are perfused with penicillin 100,000 IU after all the milk is discharged from their breasts, as a control group.
Cure standard: one day after stopping the ointments, if curdled milk is negative by the sodium hydroxide test, the cows are judged to be cured.

Row | Substance | Diameter of bacteriostatic circle of Escherichia coli (mm) [1] [mm] | Diameter of bacteriostatic circle of Staphylococcus aureus (mm) [2] [mm] | Cure rate (%) [3] [%] | Cows (head) with curdled milk being negative by sodium hydroxide test ([3]; 20, 20 and 10 cows per group) [head]
1 | FFRKVLKLIRKIWR [1 from Hunan University of Science and Engineering, preparation per CN111529683A] | 14.7 | 15.3 | – | –
2 | penicillin [Control group] | – | – | 80 | 8

— patent US12214006B2, “Traditional chinese medicine ointment for preventing and treating mastitis in dairy cows, and preparation method thereof” (Hunan University of Science and Engineering, priority 2022, dated 2025)
